Experimental data from PMC9967051, “(S)-N-Benzyl-1-phenyl-3,4-dihydroisoqunoline-2(1H)-carboxamide Derivatives, Multi-Target Inhibitors of Monoamine Oxidase and Cholinesterase: Design, Synthesis, and Biological Activity” (Molecules, 2023).

How the values were obtained:
MAO = MAO activity assay (total MAO); assay type: biochemical; conditions: for Inhibition Rate for MAO: compounds concentration 100 µM
Experimental: The enzyme activity analysis was performed according to the procedure reported by Matsumoto et al. with slight modifications. All materials used in the enzymatic assays were purchased from Aladdin Reagent Chemicals. […] The concentrations of the synthesized compounds altered from 0.001 µM to 100 µM for the MAO-A and -B enzyme activity inhibition. […] The enzymatic reactions were caused by the addition of MAO-A (40 µg/mL) or MAO-B (20 µg/mL), and cultured at 37 °C for 30 min. The enzyme reactions were stopped through the addition of 2N NaOH for 75 µL. […] The inhibitory effect of enzyme activity was calculated as a percentage of product formation compared to the corresponding control with no inhibitor. A control was established to determine the interference of the tested compounds to the fluorescence assay, and the enzyme or substrate was added after the reaction stopped.

BChE = BChE (Homo sapiens, UniProt P06276); assay: biochemical; conditions: compounds concentration 100 µM; read-out: Inhibition Rate BChE
Sequence of BChE (P06276 29-602): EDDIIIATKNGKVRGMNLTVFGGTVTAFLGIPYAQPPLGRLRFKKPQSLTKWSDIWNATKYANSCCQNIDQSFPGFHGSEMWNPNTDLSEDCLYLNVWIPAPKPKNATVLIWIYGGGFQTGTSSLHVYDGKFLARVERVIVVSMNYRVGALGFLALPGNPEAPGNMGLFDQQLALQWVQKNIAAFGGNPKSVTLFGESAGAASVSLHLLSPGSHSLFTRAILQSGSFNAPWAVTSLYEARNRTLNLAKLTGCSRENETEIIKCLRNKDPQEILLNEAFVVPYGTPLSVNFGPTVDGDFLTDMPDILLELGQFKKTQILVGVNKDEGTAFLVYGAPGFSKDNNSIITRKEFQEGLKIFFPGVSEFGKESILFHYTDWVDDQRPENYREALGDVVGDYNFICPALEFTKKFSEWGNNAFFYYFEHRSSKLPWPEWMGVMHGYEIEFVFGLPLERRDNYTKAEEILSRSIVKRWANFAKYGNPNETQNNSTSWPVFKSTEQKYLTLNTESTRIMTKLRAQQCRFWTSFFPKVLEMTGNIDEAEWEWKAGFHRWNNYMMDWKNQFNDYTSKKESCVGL
Experimental: Inhibition of AChE and BChE was measured through the spectrophotometric method developed by Ellman’s method with slight modifications. The analysis protocol contained 96-well plates (100 µL per well). Each well involved 20 µL of assay buffer solution, 20 µL of the test sample, and 40 µL of 0.2 U/mL of AChE or BChE. The mixture was incubated for 10 min at 25 °C followed by the addition of substrate (20 µL). For AChE inhibition assay, acetylthiocholine iodide (ATCI, 0.001 mol/L), while for BChE assay, butyrylthiocholine chloride (BTCCl, 0.001 mol/L) was added to it. The mixture was incubated at 37 °C for 15 min. Ellman reagent (5,5′-dithio-bis(2-nitrobenzoic acid), DTNB, 0.001 mol/L) was added. […] The blank analysis was performed. All the analyses were performed in triplicate. Inhibition rate of experimental sample or positive control group (%) = [(control group-blank background)-(experimental sample or positive control group -sample background)]/(control-blank background) × 100%.

SMILES	Inhibition Rate for MAO (MAO) [%]	inhibition at 100 µM (BChE) [%]	IC50 (MAO) [nM]
O=C(NCc1c(Cl)cccc1Cl)N1CCc2ccccc2[C@@H]1c1ccccc1 [2y, (S)-N-(2,6-dichlorobenzyl)-1-phenyl-3,4-dihydroisoquinoline-2(1H)-carboxamide]	37.7		
O=C(NCc1ccc(C(F)(F)F)cc1)N1CCc2ccccc2C1c1ccccc1 (stereo in doubt) [2m, (S)-N-(p-(trifluoromethyl)benzyl)-1-phenyl-3,4-dihydroisoquinoline-2(1H)-carboxa-mide]	35.8		
O=C(NCc1ccccc1F)N1CCc2ccccc2[C@@H]1c1ccccc1 [2b, (S)-N-(o-fluorobenzyl)-1-phenyl-3,4-dihydroisoquinoline-2(1H)-carboxamide]		49	
O=C(NCc1ccc(OC(F)(F)F)cc1)N1CCc2ccccc2C1c1ccccc1 (stereo in doubt) [2o, (S)-N-(p-(trifluoromethoxy)benzyl)-1-phenyl-3,4-dihydroisoquinoline-2(1H)-carbox-amide]	31.1		
O=C(NCc1ccccc1C(F)(F)F)N1CCc2ccccc2C1c1ccccc1 (stereo in doubt) [2k, (S)-N-(o-(trifluoromethyl)benzyl)-1-phenyl-3,4-dihydroisoquinoline-2(1H)-carboxa-mide]	33.0		
N#Cc1ccc(CNC(=O)N2CCc3ccccc3[C@@H]2c2ccccc2)cc1 [2ac, (S)-N-(p-cyanobenzyl)-1-phenyl-3,4-dihydroisoquinoline-2(1H)-carboxamide]		17.7	
O=C(NCc1ccc(F)cc1F)N1CCc2ccccc2[C@@H]1c1ccccc1 [2aa, (S)-N-(2,4-difluorobenzyl)-1-phenyl-3,4-dihydroisoquinoline-2(1H)-carboxamide]	32.1		
O=C(NCc1cccc(Cl)c1)N1CCc2ccccc2[C@@H]1c1ccccc1 [2f, (S)-N-(m-chlorobenzyl)-1-phenyl-3,4-dihydroisoquinoline-2(1H)-carboxamide]		3.4	
COc1ccc(CNC(=O)N2CCc3ccccc3[C@@H]2c2ccccc2)cc1OC [2w, (S)-N-(3,4-dimethoxybenzyl)-1-phenyl-3,4-dihydroisoquinoline-2(1H)-carboxamide]		9.4	
COc1ccccc1CNC(=O)N1CCc2ccccc2[C@@H]1c1ccccc1 [2s, (S)-N-(o-methoxybenzyl)-1-phenyl-3,4-dihydroisoquinoline-2(1H)-carboxamid]		39.6	
O=C(NCc1ccccc1OC(F)(F)F)N1CCc2ccccc2C1c1ccccc1 (stereo in doubt) [2n, (S)-N-(o-(trifluoromethoxy)benzyl)-1-phenyl-3,4-dihydroisoquinoline-2(1H)-carbox-amide]	33.0		
O=C(NCc1ccccc1Cl)N1CCc2ccccc2[C@@H]1c1ccccc1 [2e, (S)-N-(o-chlorobenzyl)-1-phenyl-3,4-dihydroisoquinoline-2(1H)-carboxamide]	41.4		
O=C(NCc1ccc(Cl)cc1)N1CCc2ccccc2[C@@H]1c1ccccc1 [2g, (S)-N-(p-chlorobenzyl)-1-phenyl-3,4-dihydroisoquinoline-2(1H)-carboxamide]	21.2		
O=C(NCc1cccc(C(F)(F)F)c1)N1CCc2ccccc2C1c1ccccc1 (stereo in doubt) [2l, (S)-N-(m-(trifluoromethyl)benzyl)-1-phenyl-3,4-dihydroisoquinoline-2(1H)-carbox-amide]		49.1	
C#CCN[C@@H]1CCc2ccccc21 [Rasagiline, reference compound]	91.75		338
O=C(NCc1ccc(Cl)cc1Cl)N1CCc2ccccc2[C@@H]1c1ccccc1 [2x, (S)-N-(2,4-dichlorobenzyl)-1-phenyl-3,4-dihydroisoquinoline-2(1H)-carboxamide]	44.7		
Cc1cccc(CNC(=O)N2CCc3ccccc3[C@@H]2c2ccccc2)c1 [2q, (S)-N-(m-methylbenzyl)-1-phenyl-3,4-dihydroisoquinoline-2(1H)-carboxamide]		8.7	
